Each structure is given as a SMILES string.

The data set deals with D2/3 receptors. The data set can be described thus: Blocking studies using ex vivo storage phosphor imaging (haloperidol). Format: in vivo. The settings on record: 2 h p.i., rats. The method, then: To determine whether [^123I]-1 binds selectively to D2/3 receptors in vivo, in the following experiments 5 rats received an i.v. injection of the dopamine receptor blocker haloperidol (1 mg/kg) 5 min prior to the injection with [^123I]-1 (approximately 37 MBq). A control group (n = 5) was injected with 0.4 mL buffer 5 min prior to the injection with the radiopharmaceutical. Two hours after the injection of [^123I]-1 (this time point was based on the results of the classic biodistribution study; see Results) the rats were sacrificed by bleeding through heart puncture under O2/CO2 anaesthesia. The brains were quickly removed and immediately frozen on dry ice. Then the frozen brain was sliced horizontally in 50 μm thick slices. Storage phosphor imaging was done as previously described. In contrast to previous studies, we used a Typhoon FLA 7000 Phosphor imager (GE Healthcare Life Sciences, Uppsala, Sweden) and Hypercassette Amersham Biosciences imaging plates which were scanned at 25 μm pixel size. In this blocking experiment, storage phosphor imaging was used because this offers the opportunity to look into binding in ventral as well as dorsal parts of the striatum. In ventral parts, the expression of dopamine D3 receptors is higher than in more dorsal parts.

Regarding `Oc1ccc2c(c1)O[C@@H](CNCc1ccc([123I])cc1)CC2` [[^123I]-1], the “specific binding in other brain areas including the globus pallidus” value was “no specific binding” and the “uptake in white matter” value is listed as “high uptake in white matter”. Besides, the specific striatal binding result (haloperidol 1 mg/kg i.v. 5 min prior vs control) is given as “no specific striatal binding was observed”.

The values are drawn from PMC4291083, “Ex Vivo Characterization of a Novel Iodine-123-Labelled Aminomethylchroman as a Potential Agonist Ligand for SPECT Imaging of Dopamine D2/3 Receptors” (International Journal of Molecular Imaging, 2014).
